According to publication PMC4188773 (Cell calcium, 2014):
Values after ≈ are worked out from the molar mass of the structure shown. Values joined by “and” are separate entries in the source; they are usually repeats but may differ in a detail not shown here. Equal values may be shown once. “Also recorded” adds a separate entry of the source.

Tests used:
[1] = source not stated; cited from earlier work
[2] = pH7; source not stated; cited from earlier work
[3] = molecular target: T1, mouse eugenol OR (mOR-EG) (Mus musculus, UniProt Q920P2); assay: dual read-out assay, mOR-EG/PLC and mOR-EG/AC responses compared; assay type: cell-based; conditions: for AC-/PLC- mediated Ca2+ response (result in words): both read-outs, up to 1-5 mM; for functional bias between PLC and AC pathways (in words): pair-wise comparison of EC50 values
T1 sequence (Q920P2 1-313): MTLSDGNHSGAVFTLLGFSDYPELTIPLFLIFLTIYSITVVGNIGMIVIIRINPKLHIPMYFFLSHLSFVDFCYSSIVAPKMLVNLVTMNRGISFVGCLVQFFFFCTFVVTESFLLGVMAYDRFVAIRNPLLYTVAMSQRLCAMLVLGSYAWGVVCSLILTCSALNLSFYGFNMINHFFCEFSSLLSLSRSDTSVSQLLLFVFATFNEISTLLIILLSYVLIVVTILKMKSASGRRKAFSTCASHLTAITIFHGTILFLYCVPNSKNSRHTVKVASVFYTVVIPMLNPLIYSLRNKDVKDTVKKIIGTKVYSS

CNGC-camp = assay: stimulation of endogenous purinergic Gαq pathway, CNGC-camp read-out; assay type: cell-based, rat; conditions: 100μM, saturating
[4] = molecular target: T1, mouse eugenol OR (mOR-EG); assay: mOR-EG/AC Ca2+ imaging: mOR-EG + Gαolf + CNGC-camp in HEK293T cells; assay type: cell-based; conditions: for decay time 90% to 10%, AC-dependent Ca2+ response / time of peak, AC-dependent Ca2+ response / time to rise 10% to 90%, AC-dependent Ca2+ response: saturating response parameters
[5] = molecular target: T1, mouse eugenol OR (mOR-EG); assay: mOR-EG/PLC Ca2+ imaging: mOR-EG + Gα15 in HEK293T cells; assay type: cell-based; conditions: for decay time 90% to 10%, PLC-dependent Ca2+ response / time of peak, PLC-dependent Ca2+ response / time to rise 10% to 90%, PLC-dependent Ca2+ response: saturating response parameters
[6] = molecular target: T1, mouse eugenol OR (mOR-EG); assay type: cell-based; conditions: up to 1 mM
[7] = molecular target: T1, mouse eugenol OR (mOR-EG); assay: mOR-EG/PLC Ca2+ response in MMDD1 macula densa cells; assay type: cell-based; conditions: range and mean
AgOR65+AgOrco = assay: Ca2+ response of HEK293T cells expressing mosquito OR AgOR65+AgOrco; assay type: cell-based, A. gambiae; conditions: 1μM, 5-s stimulation
HEK293T cells = assay: control HEK293T cells lacking components of the read-out; assay type: cell-based; conditions: for Ca2+ response in cells expressing mOR-EG and Gαolf without CNGC-camp: eugenol 0.5-2mM, forskolin 20μM, n>500
adenylate cyclase = assay: forskolin-induced Ca2+ influx in mOR-EG/Gαs
[8] = 100μM, range over cells and mean±SEM
[9] = cumulative concentration-dependence

Structure (SMILES): CC(C)c1ccc(O)cc1 [4-isopropylphenol]
- logP [1]: 3
- solubility [2]: 15 mM (≈ 2040 µg/mL)
- AC-/PLC- mediated Ca2+ response (result in words) [3]: failed to activate any response; also recorded: no effects

Structure (SMILES): CC(C)(C)c1ccc(O)cc1 [4-tert-butylphenol]
- AC-/PLC- mediated Ca2+ response (result in words) [3]: failed to activate any response; also recorded: no effects

Structure (SMILES): Nc1ncnc2c1ncn2[C@@H]1O[C@H](COP(=O)(O)OP(=O)(O)OP(=O)(O)O)[C@@H](O)[C@H]1O [ATP]
- activation of CNGC-camp (CNGC-camp): did not induce appreciable activation of CNGC-camp

Structure (SMILES): C=CCc1ccc(OC(C)=O)c(OC)c1 [acetyl eugenol]
- logP [1]: 2.7
- EC50 [4]: 373 ± 49 µM
- decay time 90% to 10%, AC-dependent Ca2+ response [4]: 125.5 ± 5.1 s
- time of peak, AC-dependent Ca2+ response [4]: 90.8 ± 3.4 s
- time to rise 10% to 90%, AC-dependent Ca2+ response [4]: 27.6 ± 1.7 s
- solubility [2]: 1.4 mM (≈ 289 µg/mL)
- EC50 [5]: 348 µM
- decay time 90% to 10%, PLC-dependent Ca2+ response [5]: 44 ± 1 s
- time of peak, PLC-dependent Ca2+ response [5]: 19.6 ± 0.9 s
- time to rise 10% to 90%, PLC-dependent Ca2+ response [5]: 7.7 ± 0.4 s
- functional bias between PLC and AC pathways (in words) [3]: activated both pathways with similar EC50 values

Structure (SMILES): CCOc1cc(C=O)ccc1O [ethyl vanillin]
- logP [1]: 1.7
- EC50 [4]: 2170 ± 131 µM
- decay time 90% to 10%, AC-dependent Ca2+ response [4]: 115.7 ± 10.8 s
- time of peak, AC-dependent Ca2+ response [4]: 91.6 ± 5.8 s
- time to rise 10% to 90%, AC-dependent Ca2+ response [4]: 36.9 ± 3.3 s
- solubility [2]: 11 mM (≈ 1830 µg/mL)
- EC50 [5]: 1490 µM
- decay time 90% to 10%, PLC-dependent Ca2+ response [5]: 52.3 ± 4.8 s
- time of peak, PLC-dependent Ca2+ response [5]: 22.6 ± 1.5 s
- time to rise 10% to 90%, PLC-dependent Ca2+ response [5]: 9.5 ± 0.8 s
- functional bias between PLC and AC pathways (in words) [3]: activated both pathways with similar EC50 values

Structure (SMILES): C=CCc1ccc(O)c(OC)c1 [eugenol]
- EC50 [4]: 53 ± 11 µM
- Tdecay, mOR-EG/AC response [4, 8]: 102 ± 11 s and 101.9 ± 10.9 s
- Tpeak, mOR-EG/AC response [4, 8]: 76 ± 6 s and 75.9 ± 6.1 s
- Trise, mOR-EG/AC response [4, 8]: 32 ± 3 s and 32.2 ± 3.0 s
- Ca2+ response on removal of extracellular Ca2+, mOR-EG/Gαs(olf) cells ([4]; 1mM): completely abolished the response
- Tdecay, mOR-EG/AC response ([4]; 5mM): 125.1 ± 4.9 s
- Tpeak, mOR-EG/AC response ([4]; 5mM): 90.5 ± 2.9 s
- Trise, mOR-EG/AC response ([4]; 5mM): 38.5 ± 1.5 s
- Hill coefficient, mOR-EG/AC response [4, 9]: 0.97
- decay time 90% to 10%, AC-dependent Ca2+ response [4]: 128.2 ± 4.9 s
- time of peak, AC-dependent Ca2+ response [4]: 90.5 ± 4.4 s
- time to rise 10% to 90%, AC-dependent Ca2+ response [4]: 39.4 ± 2.2 s
- slow Gαs(olf)-dependent response in dual-response cells [6]: obvious in the signal evoked by eugenol
- Tpeak, mOR-EG/PLC response [7]: 13 ± 0.8 s
- response kinetics vs mOR-EG responses (AgOR65+AgOrco): much faster response
- Tdecay, mOR-EG/PLC response ([5]; 25μM): 35.0 ± 0.8 s
- Tpeak, mOR-EG/PLC response ([5]; 25μM): 18.6 ± 0.8 s
- Trise, mOR-EG/PLC response ([5]; 25μM): 10.8 ± 0.9 s
- Tdecay, mOR-EG/PLC response [5, 8]: 49.4 ± 1.8 s
- Tpeak, mOR-EG/PLC response [5, 8]: 31.5 ± 0.7 s
- Trise, mOR-EG/PLC response [5, 8]: 8.4 ± 0.3 s
- Tpeak, mOR-EG/PLC response ([5]; 1mM): 15.4 ± 0.4 s
- Ca2+ response on removal of extracellular Ca2+, mOR-EG/Gα15 cells ([5]; 1mM, 5-s pulse): otherwise not affecting the Ca^2+ response
- Tdecay, mOR-EG/PLC response ([5]; 5mM): 57.9 ± 3.8 s
- Trise, mOR-EG/PLC response ([5]; 5mM): 5.6 ± 0.3 s
- Hill coefficient, mOR-EG/PLC response [5, 9]: 1.2
- decay time 90% to 10%, PLC-dependent Ca2+ response [5]: 52.6 ± 1.1 s
- time of peak, PLC-dependent Ca2+ response [5]: 15.4 ± 0.4 s
- time to rise 10% to 90%, PLC-dependent Ca2+ response [5]: 7.6 ± 0.2 s
- Ca2+ response in untransfected cells or cells expressing mOR-EG alone (HEK293T cells; 0.5-5mM, n>1000): Neither untransfected HEK293T cells nor cells expressing mOR-EG alone were sensitive
- Ca2+ response in cells expressing mOR-EG and Gαolf without CNGC-camp (HEK293T cells): did not generate noticeable Ca^2+ responses
- functional bias between PLC and AC pathways (in words) [3]: activated both pathways with similar EC50 values

Structure (SMILES): C=C[C@@]1(C)CC(=O)[C@]2(O)[C@@]3(C)[C@@H](O)CCC(C)(C)[C@@H]3[C@H](O)[C@H](OC(C)=O)[C@@]2(C)O1 [forskolin]
- Trise of Ca2+ influx on re-addition of 2 mM Ca2+ (adenylate cyclase; 10μM forskolin applied in 0-Ca2+, Ca2+ added 60 s after stimulation (Fig.3F)): 24.3 ± 3.1 s
- effect on Ca2+ concentration (adenylate cyclase; 10 μM, 5 sec pulse, mOR-EG/Gαs(olf) cells): increased the Ca^2+ concentration
- Trise of response to forskolin (adenylate cyclase; 10μM, extracellular Ca2+ present (Fig.3E)): 76.7 ± 5.7 s
- Ca2+ response in cells expressing mOR-EG and Gαolf without CNGC-camp (HEK293T cells): did not generate noticeable Ca^2+ responses

Structure (SMILES): C/C=C/c1ccc2c(c1)OCO2 [isosafrole]
- logP [1]: 3.9
- solubility [2]: 0.6 mM (≈ 97.3 µg/mL)
- AC-/PLC- mediated Ca2+ response (result in words) [3]: failed to activate any response; also recorded: non agonist, antagonist (*)
